GI50 and TGI data for eight compounds are collected here from PubChem BioAssay (NCI).

Some test systems named below: 786-0 renal; A498 renal; NCI/ADR-RES ovarian; OVCAR-8 ovarian; RXF 393 renal; SF-295 CNS; SR leukemia; SW-620 colon; U251 CNS; UO-31 renal.
Assay in all cases: DTP human tumour cell line panel, 48 h

Values joined by “and” are separate entries in the source; they are usually repeats but may differ in a detail not shown here. Identical values can stand only once.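 Compound exposure: 48 hours, 5 concentrations, 96-well plates. The concentration for 50% growth inhibition is given as GI50. TGI: total growth inhibition.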

As usually defined, the GI50 is the concentration giving 50% growth inhibition. By TGI is commonly meant the concentration giving total growth inhibition. Lower therefore signals greater sensitivity of the cells. Turning to `O=C(NCCNc1nccc(-c2c(-c3ccc(F)cc3)nc3sccn23)n1)Nc1cccc(C(F)(F)F)c1`, the GI50 in the assay on 786-0 renal was 5160 nM; with A498 renal, 10700 nM; in the assay with NCI/ADR-RES ovarian it was 4.38 µM; in the assay on OVCAR-8 ovarian, 3760 nM; in the assay on RXF 393 renal, 1990 nM; in the assay with SF-295 CNS, 4.28 µM. The GI50 in the assay on SR leukemia is 5400 nM; in the assay with SW-620 colon, 13.6 µM; in the assay on U251 CNS it was 7.62 µM; with UO-31 renal, 2940 nM. Moreover, the TGI with 786-0 renal stood at 24.9 µM; with A498 renal it was 23.8 µM; in the assay with NCI/ADR-RES ovarian, 64.2 µM; in the assay with OVCAR-8 ovarian, 27.4 µM; in the assay with RXF 393 renal, 6.05 µM; in the assay with SF-295 CNS it was 17.6 µM. Besides, the TGI was determined as 55.3 µM in the assay on SR leukemia, 32 µM in the assay on SW-620 colon, 31.7 µM in the assay on U251 CNS and 16 µM in the assay with UO-31 renal.

Consider `COc1ccc(-c2nc(Nc3ccc(F)cc3)nc(Nc3ccc4c(c3)nc(C)n4Cc3ccccc3)n2)cc1`, for which the GI50 is 2680 nM in the assay on 786-0 renal; 2390 nM in the assay on A498 renal; 3.23 µM with NCI/ADR-RES ovarian; 3450 nM in the assay with OVCAR-8 ovarian; 2530 nM in the assay on RXF 393 renal; 3.73 µM with SF-295 CNS. Moreover, the GI50 was 3490 nM with SR leukemia, 5.25 µM with SW-620 colon, 4.19 µM in the assay with U251 CNS and 3530 nM in the assay on UO-31 renal. For the same compound, the TGI is 11.2 µM with 786-0 renal; 62.4 µM with A498 renal; 12.2 µM in the assay with NCI/ADR-RES ovarian; more than 100 µM in the assay on OVCAR-8 ovarian; 9.54 µM in the assay with RXF 393 renal; more than 100 µM in the assay on SF-295 CNS. Also, the TGI is 47.8 µM in the assay on SR leukemia, more than 100 µM in the assay on SW-620 colon, more than 100 µM with U251 CNS and more than 100 µM with UO-31 renal.

As for `Nc1nc(N)c2cc(Sc3ccc(Cl)cc3)ccc2n1`, the GI50 in the assay on 786-0 renal is 582 nM; with A498 renal, 3190 nM; with NCI/ADR-RES ovarian it was 0.793 µM; in the assay with OVCAR-8 ovarian, 961 nM; with RXF 393 renal it was 1030 nM; in the assay on SF-295 CNS, 0.63 µM. Further, the GI50 in the assay on SR leukemia was 1370 nM; in the assay on SW-620 colon it was 0.306 µM; in the assay with U251 CNS, 0.526 µM; in the assay with UO-31 renal, 2430 nM. The TGI was 2.04 µM in the assay on 786-0 renal; 19 µM in the assay with A498 renal; 16.1 µM in the assay on NCI/ADR-RES ovarian; 2.61 µM with OVCAR-8 ovarian; 7.78 µM in the assay on RXF 393 renal; 15.2 µM in the assay on SF-295 CNS. Also, the TGI is 5.43 µM in the assay with SR leukemia, 1.63 µM with SW-620 colon, 1.99 µM in the assay on U251 CNS and 16.1 µM in the assay on UO-31 renal.

Regarding `O=C1NC(=N[C@@H]2C[C@H]2c2ccccc2)S/C1=C\c1ccc2ncccc2c1`, the GI50 in the assay with 786-0 renal is 2270 nM; with A498 renal, 613 nM; with NCI/ADR-RES ovarian it was 2.9 µM; in the assay on OVCAR-8 ovarian, 2050 nM; in the assay with RXF 393 renal it was 1120 nM; in the assay on SF-295 CNS, 1.29 µM. The GI50 with SR leukemia is 646 nM; in the assay on SW-620 colon, 0.901 µM; with U251 CNS, 0.875 µM; in the assay with UO-31 renal, 2060 nM. For the same compound, the TGI was 6.01 µM with 786-0 renal; 4.48 µM in the assay with A498 renal; 10.1 µM with NCI/ADR-RES ovarian; 9.69 µM in the assay with OVCAR-8 ovarian; 4.84 µM with RXF 393 renal; more than 12.8 µM in the assay with SF-295 CNS. The TGI was 3.27 µM in the assay on SR leukemia, more than 19.4 µM in the assay on SW-620 colon, 6.94 µM with U251 CNS and 6.78 µM in the assay with UO-31 renal.

For `CCN1C2=C(SC(=S)C1=C1SC(C(=O)c3ccccc3)=C(C(=O)c3ccccc3)S1)SC(=Nc1ccccc1)C2=O`, the GI50 is 1530 nM with 786-0 renal; 28100 nM in the assay with A498 renal; more than 73.9 µM in the assay with NCI/ADR-RES ovarian; 2340 nM in the assay with OVCAR-8 ovarian; 9090 nM in the assay with RXF 393 renal; 11.3 µM with SF-295 CNS. Further, the GI50 was 3190 nM in the assay on SR leukemia, 1.14 µM in the assay with SW-620 colon, 3.39 µM in the assay on U251 CNS and 5900 nM in the assay on UO-31 renal. The TGI in the assay with 786-0 renal was more than 68 µM; in the assay on A498 renal, more than 100 µM; in the assay with NCI/ADR-RES ovarian, more than 100 µM; with OVCAR-8 ovarian, more than 67.5 µM; with RXF 393 renal it was more than 45.3 µM; in the assay on SF-295 CNS it was more than 90.7 µM. Further, the TGI in the assay with SR leukemia was more than 100 µM; in the assay with SW-620 colon, 8.38 µM; in the assay on U251 CNS, more than 60.5 µM; in the assay with UO-31 renal, more than 100 µM.

On to `Nc1ncnc2occ(-c3ccc(NC(=O)Nc4cc(C(F)(F)F)ccc4F)cc3)c12`, for which the GI50 in the assay on 786-0 renal was 6630 nM and 4430 nM; with A498 renal, 1090 nM and 506 nM; in the assay with NCI/ADR-RES ovarian, 5.44 µM and 3.09 µM; with OVCAR-8 ovarian it was 4760 nM and 1950 nM; with RXF 393 renal, 2950 nM and 1110 nM; in the assay with SF-295 CNS it was 4.97 µM and 3.23 µM. For the same compound, the GI50 with SR leukemia was 2150 nM and 1050 nM; in the assay with SW-620 colon, 7.71 µM and 4.14 µM; in the assay on U251 CNS, 7.26 µM and 4.26 µM; with UO-31 renal, 4720 nM and 1480 nM. Moreover, the TGI was 16.4 µM and 10.3 µM in the assay with 786-0 renal; 6.14 µM and 2.69 µM with A498 renal; 20.2 µM and 13.3 µM in the assay with NCI/ADR-RES ovarian; 16.6 µM and 5.76 µM in the assay with OVCAR-8 ovarian; 7.06 µM and 3.92 µM with RXF 393 renal; 16.3 µM and 9.43 µM in the assay with SF-295 CNS. In addition, the TGI in the assay on SR leukemia was 11.7 µM and > 25 µM; in the assay with SW-620 colon it was 23.7 µM and 12.1 µM; in the assay with U251 CNS, 22.8 µM and 11.2 µM; in the assay on UO-31 renal, 14.1 µM and 7.88 µM.

In the case of `CCCC(c1cc(C(C)(C)C)c(O)cc1C)c1cc(C(C)(C)C)c(O)cc1C`, the concentration for total growth inhibition (TGI) with 786-0 renal turned out to be 5.41 µM; with A498 renal it was 4.51 µM; in the assay on NCI/ADR-RES ovarian, 12.1 µM; with OVCAR-8 ovarian, 12.9 µM; with RXF 393 renal, 4.56 µM; with SF-295 CNS, 6.11 µM. In addition, the TGI is 5.33 µM in the assay with SR leukemia, 10.2 µM in the assay with SW-620 colon, 6.85 µM with U251 CNS and 11.2 µM with UO-31 renal.

On to `CC(C)[C@]12O[C@H]1[C@@H]1O[C@]13[C@]1(O[C@H]1C[C@H]1C4=C(CC[C@@]13C)C(=O)OC4)[C@@H]2OC(=O)OC(C)(C)C`, for which the GI50 in the assay on 786-0 renal is 30.8 nM; in the assay with A498 renal, 14.5 nM; in the assay with NCI/ADR-RES ovarian, 0.0286 µM; with OVCAR-8 ovarian it was 28.1 nM; in the assay on RXF 393 renal, less than 11.8 nM; with SF-295 CNS it was 0.0336 µM. Besides, the GI50 is 15.9 nM in the assay with SR leukemia, less than 0.01 µM in the assay on SW-620 colon, 0.0253 µM in the assay with U251 CNS and 16.4 nM in the assay on UO-31 renal. For the same compound, the TGI with 786-0 renal is more than 100 µM; with A498 renal it was 0.0454 µM; in the assay on NCI/ADR-RES ovarian, 10.5 µM; with OVCAR-8 ovarian, more than 100 µM; with RXF 393 renal it was 0.0286 µM; with SF-295 CNS it was more than 100 µM. In addition, the TGI in the assay with SW-620 colon, with U251 CNS and with UO-31 renal was more than 100 µM each time.
